Experimental data from patent publication EP4803511A1, “SMALL MOLECULE COMPOUND HAVING SULFONIC ACID OR SULFINIC ACID LACTONE STRUCTURE, COMPOSITION AND USE THEREOF” (Hangzhou Phecdamed Co., Ltd., priority 2023, dated 2025).

Legend:
COL4A1 = test: Collagen IV gene expression in HaCaT human immortalized keratinocytes; type: cell-based; conditions: 24 hrs, dose-dependent
Text: Skin fragility is partly attributed to changes in hemidesmosomes and the expression downregulation of various collagen proteins (Collagen I, III, IV, VII) or laminins (such as LN-5) at the dermal-epidermal junction. LN-5 has been proven to be a component of anchoring fibers in the basement membrane of the skin, cornea, conjunctiva, and other tissues. LN-5 participates in cell-cell interactions through the mediation of integrins and proteoglycans, thereby playing a crucial role in cell adhesion, growth, migration, and differentiation. The appearance of wrinkles is closely related to the normal synthesis and expression of collagen and laminins. Therefore, the increase of the above collagen content and LN-5 can achieve a certain role in resisting wrinkles, and plays an important role in the aging process of the skin. Therefore, the anti-wrinkle effect of the compound to be tested was evaluated by detecting the level of Collage I protein of […] by ELISA, and detecting the transcription levels of epidermal cells (keratinocytes) III, IV, VII and LN -5 by Real-Time PCR. The following Test Examples 8-1 and 8-2 evaluated the anti-wrinkle efficacy of compounds using HaCaT human immortalized keratinocytes and HSF human skin fibroblasts. […]

[1] = tested on: wild-type AB strain zebrafish; test: Zebrafish model, relieving anti-inflammatory efficacy (copper sulfate-induced, inflammatory cells at the neurothalamus); type: in vivo; conditions: zebrafish 3 dpf, 40 µM copper sulfate model; effective concentrations 7.4, 22.2, and 66.6 µg/mL
Experimental: Experimental animal: Healthy wild-type AB strain zebrafish at 3 dpf (days post fertilization)
Evaluation of the relieving stinging efficacy: Healthy AB strain zebrafish were taken and randomly divided into four groups: blank control, modeling group, positive control, and sample group. […] After continuous treatment for a certain period, the zebrafish's behavioral trajectories were recorded using a behavior analyzer, and the changes in total movement distance and speed were statistically analyzed, the results are shown in FIGS. 2-4. […]
Evaluation of the relieving anti-inflammatory efficacy: As described above, the modeling drug was 40 µM copper sulfate, the positive control drug was 200 µM asiaticoside, and the concentrations of I-8 were 66.6, 22.2, and 7.4 µg/mL respectively. After treating zebrafish as described above, inflammatory cells in their bodies were stained, the number of inflammatory cells at the neurothalamus was counted, and statistical analysis was performed.

Compound: O=S1(=O)Oc2cc(O)ccc2-c2ccc(O)cc21 [Compound I-8]
- COL4A1 gene expression (COL4A1): upregulate
- relieving anti-inflammatory efficacy [1]: certain relieving anti-inflammatory efficacy
